{"source": "patent US11208400B2", "about": "“Substituted 6-(1H-pyrazol-1-yl)pyrimidin-4-amine derivatives and uses thereof” (Bayer Aktiengesellschaft, priority 2016, dated 2021)", "data": [{"target": "T1, human Npt2a (Homo sapiens, UniProt Q06495)", "T1 construct": "expressed in transfected cells", "T1 sequence (Q06495 1-639)": "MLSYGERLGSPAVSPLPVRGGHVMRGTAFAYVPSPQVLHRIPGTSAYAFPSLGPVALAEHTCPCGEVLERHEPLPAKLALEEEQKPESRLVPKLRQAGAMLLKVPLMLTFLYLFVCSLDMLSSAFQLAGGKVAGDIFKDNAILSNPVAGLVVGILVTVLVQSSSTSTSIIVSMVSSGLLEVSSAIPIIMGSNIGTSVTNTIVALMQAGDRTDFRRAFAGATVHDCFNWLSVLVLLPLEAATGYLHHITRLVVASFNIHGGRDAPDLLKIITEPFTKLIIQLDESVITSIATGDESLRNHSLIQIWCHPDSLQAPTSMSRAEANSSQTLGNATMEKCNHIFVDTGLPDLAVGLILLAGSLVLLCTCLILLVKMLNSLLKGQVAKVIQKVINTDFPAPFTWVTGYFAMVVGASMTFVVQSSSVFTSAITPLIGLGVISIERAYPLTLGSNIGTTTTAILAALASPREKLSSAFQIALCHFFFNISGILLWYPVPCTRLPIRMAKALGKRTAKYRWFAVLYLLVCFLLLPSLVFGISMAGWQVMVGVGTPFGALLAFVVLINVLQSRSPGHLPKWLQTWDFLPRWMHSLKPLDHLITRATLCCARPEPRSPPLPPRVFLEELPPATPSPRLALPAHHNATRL", "assay": "Npt2a activity cell based assay, membrane potential dye, CHO T-REx hNpt2a cells", "conditions": "doxycycline-induced, depolarization by sodium phosphate influx, average or median values if tested more than once", "outline": "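Cells were doxycycline-induced CHO T-REx hNpt2a, dye-loaded and pretreated 5 min at RT with 1 nM–50 μM compound in Na-free pH 7.4 buffer. IC50 was fit to the post/pre-trigger fluorescence ratio.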", "units": {"IC50": "nM"}, "values": [{"smiles": "COc1c(Nc2cc(-n3nc(C)c(C(F)(F)F)c3C)ncn2)nn(C)c1-c1ccc(C#N)cc1", "note": "[Example 541, 4-[3-({6-[3,5-dimethyl-4-(trifluoromethyl)-1H-pyrazol-1-yl]pyrimidin-4-yl}amino)-4-methoxy-1-methyl-1H-pyrazol-5-yl]benzonitrile]", "IC50": 260}, {"smiles": "Cc1cc(C(F)F)n(-c2cc(Nc3c(C)nn(-c4ccc(F)cc4)c3C)ncn2)n1", "note": "[Example 93, 6-[5-(difluoromethyl)-3-methyl-1H-pyrazol-1-yl]-N-[1-(4-fluorophenyl)-3,5-dimethyl-1H-pyrazol-4-yl]pyrimidin-4-amine]", "IC50": 29}, {"smiles": "CCOC(=O)c1c(C)nn(-c2cc(Nc3c(C)c(-c4ccc(C(F)(F)F)cc4)nn3CC3CC3)ncn2)c1C", "note": "[Example 285, ethyl 1-[6-({1-(cyclopropylmethyl)-4-methyl-3-[4-(trifluoromethyl)phenyl]-1H-pyrazol-5-yl}amino)pyrimidin-4-yl]-3,5-dimethyl-1H-pyrazole-4-carboxylate]", "IC50": 140}, {"smiles": "Cc1cc(C)n(-c2cc(Nc3c(C)c(-c4ccc(C(F)(F)F)nc4)nn3CC3CC3)ncn2)n1", "note": "[Example 533, N-{1-(cyclopropylmethyl)-4-methyl-3-[6-(trifluoromethyl)pyridin-3-yl]-1H-pyrazol-5-yl}-6-(3,5-dimethyl-1H-pyrazol-1-yl)pyrimidin-4-amine]", "IC50": 2000}, {"smiles": "Cc1ccc(-c2nn(CC3CC3)c(Nc3cc(-n4nc(C)c(Cl)c4C)ncn3)c2C)cn1", "note": "[Example 397, 6-(4-chloro-3,5-dimethyl-1H-pyrazol-1-yl)-N-[1-(cyclopropylmethyl)-4-methyl-3-(6-methylpyridin-3-yl)-1H-pyrazol-5-yl]pyrimidin-4-amine]", "IC50": 92}, {"smiles": "CCOC(=O)c1c(C)nn(-c2cc(Nc3nn(C)c(-c4ccccc4)c3Cl)ncn2)c1C", "note": "[Example 81, ethyl 1-{6-[(4-chloro-1-methyl-5-phenyl-1H-pyrazol-3-yl)amino]pyrimidin-4-yl}-3,5-dimethyl-1H-pyrazole-4-carboxylate]", "IC50": 11}, {"smiles": "CCOC(=O)c1c(C)nn(-c2cc(Nc3c(OC)c(-c4ccc(C#N)cc4)nn3C)ncn2)c1C", "note": "[Example 446, ethyl 1-(6-{[3-(4-cyanophenyl)-4-methoxy-1-methyl-1H-pyrazol-5-yl]amino}pyrimidin-4-yl)-3,5-dimethyl-1H-pyrazole-4-carboxylate]", "IC50": 12}, {"smiles": "CCOC(=O)c1c(C)nn(-c2cc(Nc3c(C)c(-c4ccc(C(F)F)cc4)nn3CCOC)ncn2)c1C", "note": "[Example 546, ethyl 1-[6-({3-[4-(difluoromethyl)phenyl]-1-(2-methoxyethyl)-4-methyl-1H-pyrazol-5-yl}amino)pyrimidin-4-yl]-3,5-dimethyl-1H-pyrazole-4-carboxylate]", "IC50": 14}, {"smiles": "CCc1c(-c2ccc(F)cc2)nn(CC2CC2)c1Nc1cc(-n2nc(C)cc2C)ncn1", "note": "[Example 121, N-[1-(cyclopropylmethyl)-4-ethyl-3-(4-fluorophenyl)-1H-pyrazol-5-yl]-6-(3,5-dimethyl-1H-pyrazol-1-yl)pyrimidin-4-amine]", "IC50": "< 1.6"}, {"smiles": "Cc1cc(C)n(-c2cc(Nc3c(C)nn(-c4ccc(C#N)cc4)c3C)ncn2)n1", "note": "[Example 199, 4-(4-{[6-(3,5-dimethyl-1H-pyrazol-1-yl)pyrimidin-4-yl]amino}-3,5-dimethyl-1H-pyrazol-1-yl)benzonitrile]", "IC50": 36}, {"smiles": "CCc1c(Nc2cc(-n3nc(C)cc3C)ncn2)nn(C)c1-c1ccc(F)cc1", "note": "[Example 1, 6-(3,5-dimethyl-1H-pyrazol-1-yl)-N-[4-ethyl-5-(4-fluorophenyl)-1-methyl-1H-pyrazol-3-yl]pyrimidin-4-amine]", "IC50": 4.48}, {"smiles": "Cc1cc(C)n(-c2cc(Nc3n[nH]c(-c4ccc(F)cc4)c3C)ncn2)n1", "note": "[Example 17, 6-(3,5-dimethyl-1H-pyrazol-1-yl)-N-[5-(4-fluorophenyl)-4-methyl-1H-pyrazol-3-yl]pyrimidin-4-amine]", "IC50": 100}, {"smiles": "Cc1cc(C(F)F)n(-c2cc(Nc3nn(C)c(-c4ccc(C(F)F)cc4)c3C)ncn2)n1", "note": "[Example 432, 6-[5-(difluoromethyl)-3-methyl-1H-pyrazol-1-yl]-N-{5-[4-(difluoromethyl)phenyl]-1,4-dimethyl-1H-pyrazol-3-yl}pyrimidin-4-amine]", "IC50": 320}, {"smiles": "Cc1nn(-c2cc(Nc3c(C)c(-c4ccc(C#N)cc4)nn3CC3CC3)ncn2)c(C(F)F)c1C(=O)OC(C)(C)C", "note": "[Example 192, tert-butyl 1-(6-{[3-(4-cyanophenyl)-1-(cyclopropylmethyl)-4-methyl-1H-pyrazol-5-yl]amino}pyrimidin-4-yl)-5-(difluoromethyl)-3-methyl-1H-pyrazole-4-carboxylate]", "IC50": 16}, {"smiles": "Cc1cc(C)n(-c2cc(Nc3n[nH]c(-c4ccc(F)cc4F)c3Cl)ncn2)n1", "note": "[Example 6, N-[4-chloro-5-(2,4-difluorophenyl)-1H-pyrazol-3-yl]-6-(3,5-dimethyl-1H-pyrazol-1-yl)pyrimidin-4-amine]", "IC50": 49}, {"smiles": "CCc1c(Nc2cc(-n3nc(C)c(C(=O)N4CCCC4C)c3C)ncn2)nn(C)c1-c1ccc(F)cc1", "note": "(racemic) [Example 76, (±)-[1-(6-{[4-ethyl-5-(4-fluorophenyl)-1-methyl-1H-pyrazol-3-yl]amino}pyrimidin-4-yl)-3,5-dimethyl-1H-pyrazol-4-yl](2-methylpyrrolidin-1-yl)methanone]", "IC50": 190}, {"smiles": "Cc1cc(C)n(-c2cc(Nc3c(C)c(-c4ccc(F)cc4)nn3CC(C)(O)C3CC3)ncn2)n1", "note": "(racemic) [Example 325, (±)-2-cyclopropyl-1-[5-{[6-(3,5-dimethyl-1H-pyrazol-1-yl)pyrimidin-4-yl]amino}-3-(4-fluorophenyl)-4-methyl-1H-pyrazol-1-yl]propan-2-ol (Racemate)]", "IC50": 1100}, {"smiles": "Cc1nn(-c2cc(Nc3nn(C)c(-c4ccc(F)cc4)c3C)ncn2)c(C)c1C1(O)CC1", "note": "[Example 138, 1-[1-(6-{[5-(4-fluorophenyl)-1,4-dimethyl-1H-pyrazol-3-yl]amino}pyrimidin-4-yl)-3,5-dimethyl-1H-pyrazol-4-yl]cyclopropanol]", "IC50": 150}, {"smiles": "CNc1ccc(-c2nn(CC3CC3)c(Nc3cc(-n4nc(C)c(Cl)c4C)ncn3)c2C)cc1", "note": "[Example 417, 6-(4-chloro-3,5-dimethyl-1H-pyrazol-1-yl)-N-{1-(cyclopropylmethyl)-4-methyl-3-[4-(methylamino)phenyl]-1H-pyrazol-5-yl}pyrimidin-4-amine]", "IC50": 27}, {"smiles": "Cc1nn(-c2cc(Nc3nn(C)c(-c4ccccc4)c3Cl)ncn2)c(C)c1Cl", "note": "[Example 53, 6-(4-chloro-3,5-dimethyl-1H-pyrazol-1-yl)-N-(4-chloro-1-methyl-5-phenyl-1H-pyrazol-3-yl)pyrimidin-4-amine]", "IC50": 11.3}, {"smiles": "CCc1c(Nc2cc(-n3nc(C)c(C(=O)N4CCC(C(F)(F)F)C4)c3C)ncn2)nn(C)c1-c1ccc(F)cc1", "note": "(stereo not shown) [Example 272, [1-(6-{[4-ethyl-5-(4-fluorophenyl)-1-methyl-1H-pyrazol-3-yl]amino}pyrimidin-4-yl)-3,5-dimethyl-1H-pyrazol-4-yl][3-(trifluoromethyl)pyrrolidin-1-yl]methanone]", "IC50": 340}, {"smiles": "COc1c(Nc2cc(-n3nc(C)cc3C)ncn2)nn(C)c1-c1ccc(F)cc1", "note": "[Example 253, 6-(3,5-dimethyl-1H-pyrazol-1-yl)-N-[5-(4-fluorophenyl)-4-methoxy-1-methyl-1H-pyrazol-3-yl]pyrimidin-4-amine]", "IC50": 67}, {"smiles": "COc1c(Nc2cc(-n3nc(C)c(OC)c3C)ncn2)nn(C)c1-c1ccc(C#N)cc1", "note": "[Example 493, 4-(4-methoxy-3-{[6-(4-methoxy-3,5-dimethyl-1H-pyrazol-1-yl)pyrimidin-4-yl]amino}-1-methyl-1H-pyrazol-5-yl)benzonitrile]", "IC50": 625}, {"smiles": "Cc1nn(-c2cc(Nc3c(C)c(-c4ccc(F)cc4)nn3CC3CC3)ncn2)c(C)c1C(O)C(F)F", "note": "(racemic) [Example 392, (±)-1-[1-(6-{[1-(cyclopropylmethyl)-3-(4-fluorophenyl)-4-methyl-1H-pyrazol-5-yl]amino}pyrimidin-4-yl)-3,5-dimethyl-1H-pyrazol-4-yl]-2,2-difluoroethanol]", "IC50": 18}, {"smiles": "CCc1c(-c2ccc(F)cc2)nn(CC2CCC2)c1Nc1cc(-n2nc(C)cc2C)ncn1", "note": "[Example 182, N-[1-(cyclobutylmethyl)-4-ethyl-3-(4-fluorophenyl)-1H-pyrazol-5-yl]-6-(3,5-dimethyl-1H-pyrazol-1-yl)pyrimidin-4-amine]", "IC50": 106}, {"smiles": "CC(=O)c1c(C)nn(-c2cc(Nc3c(C)c(-c4ccc(C#N)cc4)nn3C)ncn2)c1C", "note": "[Example 337, 4-(5-{[6-(4-acetyl-3,5-dimethyl-1H-pyrazol-1-yl)pyrimidin-4-yl]amino}-1,4-dimethyl-1H-pyrazol-3-yl)benzonitrile]", "IC50": 66}, {"smiles": "Cc1nn(-c2cc(Nc3c(Cl)c(-c4ccc(F)cc4)nn3C)ncn2)c2ccccc12", "note": "[Example 100, N-[4-chloro-3-(4-fluorophenyl)-1-methyl-1H-pyrazol-5-yl]-6-(3-methyl-1H-indazol-1-yl)pyrimidin-4-amine]", "IC50": 360}, {"smiles": "COc1ccc(-c2nn(CC3CC3)c(Nc3cc(-n4nc(C)c(Cl)c4C)ncn3)c2C)cn1", "note": "[Example 498, 6-(4-chloro-3,5-dimethyl-1H-pyrazol-1-yl)-N-[1-(cyclopropylmethyl)-3-(6-methoxypyridin-3-yl)-4-methyl-1H-pyrazol-5-yl]pyrimidin-4-amine]", "IC50": 1310}]}]}
